Earlier results in patent US20260257261A1, “BIOMIMETIC MULTIFUNCTIONAL LIGNOCELLULOSIC DEGRADABLE SORBENT FOR ENVIRONMENTAL REMEDIATION” (THE TEXAS A&M UNIVERSITY SYSTEM, priority 2022, published 2026).

Conditions: previous studies by Mahapatra et al. and others

Row | Structure (SMILES) | toxicity relative to PFOA (C8)
1 | O=C(O)C(F)(F)C(F)(F)C(F)(F)F [PFBA] | much less toxic
2 | O=C(O)C(F)(F)C(F)(F)C(F)(F)C(F)(F)C(F)(F)F [PFHA, perfluorohexanoic acid] | much less toxic
3 | O=C(O)C(F)(F)C(F)(F)C(F)(F)C(F)(F)F [PUPA] | much less toxic
